Reference: patent US6380235B1, “Benzimidazolones and analogues” (American Home Products Corporation, priority 1999, dated 2002)
Where “and” joins values, the source holds several entries; their conditions need not be identical. Identical values can stand only once.

Columns and labels:
[1] = system: rat uterine decidualization; experiment: Rat decidualization assay; assay type: in vivo; settings: ovariectomized female Sprague-Dawley rats; for Estimated average EC50 for dose-response curves (decidual response): s.c.
Procedure: 2. Rat Decidualization Assay
b. Animals (RACUC Protocol #5002)
The animals are treated once daily for seven days.
Uteri are removed and trimmed of fat.
Body weight: Mean total animal body weight (default-kg)
Decidual response: [(D-C)/C]×100%

human PR = target: T1, human PR (Homo sapiens, UniProt P06401); experiment: PRE-luciferase assay in CV-1 cells (hPR CV-1); assay type: cell-based
T1 construct: expressed in transfected cells; host or cells: CV-1 cells, electroporated with pLEM-hPR-B and pGL3-2xPRE-luciferase
T1 sequence (P06401 1-933): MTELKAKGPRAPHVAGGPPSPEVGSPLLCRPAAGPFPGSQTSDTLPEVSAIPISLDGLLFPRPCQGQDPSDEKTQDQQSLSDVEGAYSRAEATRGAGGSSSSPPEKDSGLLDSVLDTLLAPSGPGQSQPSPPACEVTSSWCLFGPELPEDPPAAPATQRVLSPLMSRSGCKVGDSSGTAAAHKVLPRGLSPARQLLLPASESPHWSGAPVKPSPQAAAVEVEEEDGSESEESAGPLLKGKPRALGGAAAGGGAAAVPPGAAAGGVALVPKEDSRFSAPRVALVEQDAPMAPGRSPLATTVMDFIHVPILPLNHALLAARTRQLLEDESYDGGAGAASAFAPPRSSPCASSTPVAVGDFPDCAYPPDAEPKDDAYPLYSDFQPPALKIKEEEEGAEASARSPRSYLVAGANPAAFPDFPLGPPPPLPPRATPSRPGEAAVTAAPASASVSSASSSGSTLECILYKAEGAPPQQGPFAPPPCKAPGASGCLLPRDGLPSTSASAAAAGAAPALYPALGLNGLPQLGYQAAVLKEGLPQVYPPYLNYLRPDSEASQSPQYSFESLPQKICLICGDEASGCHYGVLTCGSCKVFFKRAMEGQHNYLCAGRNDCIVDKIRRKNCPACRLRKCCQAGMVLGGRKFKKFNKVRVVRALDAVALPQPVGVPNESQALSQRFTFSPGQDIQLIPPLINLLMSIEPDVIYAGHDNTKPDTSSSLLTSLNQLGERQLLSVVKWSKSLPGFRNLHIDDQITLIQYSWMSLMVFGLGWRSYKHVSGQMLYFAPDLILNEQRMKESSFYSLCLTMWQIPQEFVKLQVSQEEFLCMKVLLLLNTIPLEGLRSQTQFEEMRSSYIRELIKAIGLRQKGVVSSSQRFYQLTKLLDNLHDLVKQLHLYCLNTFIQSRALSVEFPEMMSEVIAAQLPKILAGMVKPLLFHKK
Procedure: 3. PRE-luciferase Assay in CV-1 Cells
The object of this assay is to determine a compound's progestational or antiprogestational potency based on its effect on PRE-luciferase reporter activity in CV-1 cells co-transfected with human PR and PRE-luciferase plasmids. The materials methods used in the assay are as follows.
DMEM (BioWhittaker) containing 10% (v/v) fetal bovine serum (heat inactivated), 0.1 mM MEM non-essential amino acids, 100 U/ml penicillin, […] streptomycin, and 2 mM GlutaMax (GIBCO, BRL). Experimental medium: DMEM (BioWhittaker), phenol red-free, containing 10% (v/v) charcoal-stripped fetal bovine serum (heat-inactivated), 0.1 mM MEM non-essential amino acids, 100 U/ml penicillin, […] streptomycin, and 2 mM GlutaMax (GIBCO, BRL).
b. Cell Culture Transfection Treatment, and Luciferase Assay
Stock CV-1 cells are maintained in growth medium. Co-transfection is done using 1.2×10^7 cells, […] pLEM plasmid with hPR-B inserted at Sphl and BamHl sites, 10 mg pGL3 plasmid with two PREs upstream of the luciferase sequence, and 50 mg sonicated calf thymus DNA as carrier DNA in […]. Electroporation is carried out at 260 V and […] in a Biorad Gene Pulser II. After electroporation, cells are resuspended in growth medium and plated in 96-well plate at 40,000 cells/well in 200 μl. Following overnight incubation, the medium is changed to experimental medium. […] Twenty-four hr. after treatment, the medium is discarded, cells are washed three times with D-PBS (GIBCO, BRL). Fifty μl of cell lysis buffer (Promega, Madison, Wis.) is added to each well and the plates are shaken for 15 min in a Titer Plate Shaker (Lab Line Instrument, Inc.). Luciferase activity is measured using luciferase reagents from Promega.
Each treatment consists of at least 4 replicates. Log transformed data are used for analysis of variance and nonlinear dose response curve fitting for both agonist and antagonist modes. Huber weighting is used to downweight the effects of outliers. EC50 or IC50 values are calculated from the retransformed values.

[2] = system: alkaline phosphatase activity in T47D cells; experiment: T47D cell alkaline phosphatase assay; assay type: cell-based; settings: antagonist activity in the presence of 1 nM progesterone, 24 hr
Procedure: 4. T47D Cell Alkaline Phosphatase Assay
The purpose of this assay is to identify progestins or antiprogestins by determining a compound's effect on alkaline phosphatase activity in T47D cells.
DMEM:F12 (1:1) (GIBCO, BRL) supplemented with 5% (v/v) charcoal stripped fetal bovine serum (not heat-inactivated), 100 U/ml penicillin, 100 μg/ml streptomycin, and 2 mM GlutaMax (GIBCO, BRL). b. Alkaline Phosphatase Assay Buffer
I. 0.1 M Tris-HCl, pH 9.8, containing 0.2% Triton X-100
II. 0.1 M Tris-HCl, pH 9.8 containing 4 mM p-nitrophenyl phosphate (Sigma). c. Cell Culture and Treatment
Frozen T47D cells were thawed in a 37° C. water bath and diluted to 280,000 cells/ml in culture medium. To each well in a 96-well plate (Falcon, Becton Dickinson Labware), 180 μl of diluted cell suspension was added. Twenty μl of reference or test compounds diluted in the culture medium was then added to each well. […] The cells were incubated at 37° C. in a 5% CO2/humidified atmosphere for 24 hr. […]
d. Alkaline Phosphatase Enzyme Assay
At the end of treatment, the medium was removed from the plate and fifty μl of assay buffer I was added to each well. The plates were shaken in a titer plate shaker for 15 min. […]
For reference and test compounds, a dose response curve is generated for dose (X-axis) vs. the rate of enzyme reaction (slope) (Y-axis). […] EC50 or IC50 values are calculated from the retransformed values.

T47D cells = experiment: T47D cell proliferation assay (BrdU incorporation); assay type: cell-based
Procedure: 1. T47D Cell Proliferation Assay
The objective of this assay is the determination of progestational and antiprogestational potency by using a cell proliferation assay in T47D cells. A compound's effect on DNA synthesis in T47D cells is measured.
DMEM:F12 (1:1) (GIBCO, BRL) supplemented with 10% (v/v) fetal bovine serum (not heat-inactivated), 100 U/ml penicillin, […] streptomycin, and […] GlutaMax (GIBCO, BRL).
Minimum Essential Medium (MEM) (#51200-038GIBCO, BRL) phenol red-free supplemented with 0.5% charcoal stripped fetal bovine serum, 100 U/ml penicillin, […] streptomycin, and 2 mM GlutaMax (GIBCO, BRL). […]
At the end of BrdU labeling, the medium is removed and BrdU incorporation is measured using a cell proliferation ELISA kit (#RPN 250, Amersham Life Science) according to manufacturer's instructions. […] Then 25 μl of 1 M sulfuric acid is added to each well to stop color reaction and optical density is read in a plate reader at 450 nm within 5 min.
Square root-transformed data are used for analysis of variance and nonlinear dose response curve fitting for both agonist and antagonist modes. […] EC50 or IC50 values are calculated from the retransformed values.
Trimegestone and medroxyprogesterone acetate (MPA) are reference progestins and RU486 is the reference antiprogestin. All reference compounds are run in fill dose-response curves and the EC50 or IC50 values are calculated.

C#C[C@]1(O)CC[C@H]2[C@@H]3CCC4=CC(=O)CC[C@@H]4[C@H]3C(=C)C[C@@]21CC [3-Ketodesogestrel]
Estimated EC50 for uterine weight (decidual response) ([1]; s.c. once daily for seven days, individual studies): 0.10 mg/kg, s.c. and 0.06 mg/kg, s.c. and 0.11 mg/kg, s.c.
Estimated average EC50 for dose-response curves (decidual response) [1]: 0.10 mg/kg, s.c.

O=c1[nH]c2ccc(-c3cccc([N+](=O)[O-])c3)cc2n1Cc1ccccc1 [Compound 2, 1-Benzyl-6-(3-nitro-phenyl)-1,3-dihydro-benzoimidazol-2-one]
IC50 (human PR): 230 nM

Cn1c(=O)[nH]c2cc(-c3cccc([N+](=O)[O-])c3)ccc21 [Compound 5]
IC50 (human PR): 750 nM

CC(C)n1c(=O)[nH]c2ccc(-c3cccc([N+](=O)[O-])c3)cc21 [Compound 6]
IC50 (human PR): 147 nM

CC(C)n1c(=O)[nH]c2ccc(-c3cccc(Cl)c3)cc21 [Compound 7]
IC50 (human PR): 155 nM

O=C1CSc2cc(-c3cccc([N+](=O)[O-])c3)ccc2N1 [Compound B1, 7-(3-Nitro-phenyl)-4H-benzo[1,4]thiazin-3-one]
IC50 (human PR): 220 nM

CCC1Sc2cc(-c3cccc([N+](=O)[O-])c3)ccc2NC1=O (stereo not shown) [Compound B2]
IC50 (human PR): 295 nM

CN1CC(=O)Nc2ccc(-c3cccc(Cl)c3)cc21 [Compound C1, 6-(3-Chloro-phenyl)-4-methyl-3,4-dihydro-1H-quinoxalin-4-one]
IC50 [2]: 600 nM

O=C1CNc2cc(-c3cccc(Cl)c3)ccc2N1 [Compound C2]
IC50 (human PR): 525 nM

CN1CC(=O)Nc2ccc(-c3cc(C#N)cs3)cc21 [Compound C3, 5-(3,4-Dihydro-4-methyl-2-oxo-quinaxalin-6-yl)thiophene-3-carbonitrile]
IC50 [2]: 300 nM

CCCCN1CC(=O)Nc2ccc(-c3cccc(Cl)c3)cc21 [Compound C6, 4-(n-Butyl)-6-(3-chloro-phenyl)-3,4-dihydro-1H quinoxalin-2-one]
melting point: 110 to 115 °C

CC(C)OC(=O)N1CC(=O)Nc2ccc(-c3cccc(Cl)c3)cc21 [Example 29, Isopropyl 7-(3-chlorophenyl)-3-oxo-3,4-dihydroquinoxalin-1(2H)-carboxylate]
melting point: 174 to 176 °C

C#C[C@]1(O)CC[C@H]2[C@@H]3CCC4=CC(=O)CC[C@@H]4[C@H]3CC[C@@]21CC [Levonorgestrel]
Estimated average EC50 for dose-response curves (decidual response) [1]: 0.10 mg/kg, s.c.

CC#C[C@]1(O)CC[C@H]2[C@@H]3CCC4=CC(=O)CCC4=C3[C@@H](c3ccc(N(C)C)cc3)C[C@@]21C [RU486]
IC50 (T47D cells; read-out: Estimated IC50 (half-maximal decrease in trimegestone induced BrdU incorporation), in presence of 0.03 nM trimegestone (b226 prints 0.1), individual studies): 0.016 nM and 0.018 nM

C[C@H](O)C(=O)[C@@]1(C)CC[C@H]2[C@@H]3CCC4=CC(=O)CCC4=C3CC[C@@]21C [Trimegestone]
EC50 (T47D cells; individual studies, read-out: Estimated EC50 (half-maximal increase in BrdU incorporation)): 0.017 nM and 0.014 nM and 0.019 nM
